According to patent US20140343097A1, “5-(2-1-HYDROXYETHYL)-8-HYDROXYQUINOLIN-2(1H)-ONE FOR THE TREATMENT OF LUNG FUNCTION” (ALMIRALL, S.A., priority 2009, published 2014):

Tested on: men with mild to moderate persistent asthma (lung function, FEV1)
Assay: Clinical Phase II cross-over study: FEV1 by spirometry after single inhaled doses in asthma patients
Type: in vivo, human
Conditions: for Peak FEV1 / Peak FEV1 increase over baseline / Peak FEV1 increase over placebo / Trough FEV1 / Trough FEV1 increase over baseline / Trough FEV1 increase over placebo: average, compound single dose 25 mcg, salmeterol 50 mcg at 0 and 12 hours; for Peak FEV1: inhalation by dry powder inhaler; for Peak FEV1 increase over baseline / Peak FEV1 increase over placebo / Trough FEV1 / Trough FEV1 increase over baseline / Trough FEV1 increase over placebo: inhalation
Excerpt: Clinical Phase II study: A randomised double-blind, double-dummy, placebo and active comparator-controlled, cross-over trial assesses the activity, safety, tolerability and pharmacokinetics of single doses of 5-(2-{[6-(2,2-difluoro-2-phenylethoxy)hexyl]amino}-1-(R)-hydroxyethyl)-8-hydroxyquinolin-2(1H)-one heminapadisylate by inhalation in asthma patients.
Methods: Men with a diagnosis of mild to moderate persistent asthma, as defined by the 2006 GINA guideline, for at least 6 months prior to screening and with a FEV1 61-85% of the predicted normal values (according to Quanjer et al. 1993) were randomised to treatment sequences comprising a single-dose administration of 5-(2-{[6-(2,2-difluoro-2-phenylethoxy)hexyl]amino}-1-(R)-hydroxyethyl)-8-hydroxyquinolin-2(1H)-one heminapadisylate (at a metered nominal dose of 25 micrograms in the Cyclohaler® device), two administrations (at time points 0 and 12 hours) of Salmeterol (at a metered nominal dose of 50 micrograms in the Cyclohaler® device) and placebo administered all of them by means of a dry powder inhaler. Lung function measurements included (by spirometry) FEV1, PEF, FVC, FEF25-75, and (by body plethysmography) sGaw and Raw.
Results: 25 males (aged 18 to 70) took part in the study.

[1] = 25 micrograms single inhaled dose

Row | Compound | average peak and trough FEV1 compared with placebo and with salmeterol [1] | increase in average trough FEV1 compared to salmeterol (two doses) [1] | Peak FEV1 [L] | Peak FEV1 increase over baseline [mL] | Peak FEV1 increase over placebo [mL] | Trough FEV1 [L] | Trough FEV1 increase over baseline [mL] | Trough FEV1 increase over placebo [mL] | FEV1 values compared with salmeterol (single dose 25 micrograms) | bronchodilation: size, duration and onset (single dose 25 micrograms)
1 | O=c1ccc2c([C@@H](O)CNCCCCCCOCC(F)(F)c3ccccc3)ccc(O)c2[nH]1 [5-(2-{[6-(2,2-difluoro-2-phenylethoxy)hexyl]amino}-1-(R)-hydroxyethyl)-8-hydroxyquinolin-2(1H)-one] | clearly increased | statistically significant | 3.819 | 843 | 618 | 3.642 | 666 | 718 | significantly higher than those produced by salmeterol | surprisingly large, long-lasting bronchodilation, with a fast onset
2 | OCc1cc(C(O)CNCCCCCCOCCCCc2ccccc2)ccc1O (stereo not shown) [Salmeterol, 2-(hydroxymethyl)-4-{1-hydroxy-2-[6-(4-phenylbutoxy)hexylamino]ethyl}phenol, reference compound] |  |  | 3.521 | 667 | 442 | 3.209 | 355 | 285 |  | 
